# Reference: the supplement of paper PMC10307832
# Compound: COc1cc2nc(N3CCCN(C)CC3)nc(NC3CCN(Cc4ccccc4)CC3)c2cc1OC + NC(=O)Nc1cc(-c2cccc(F)c2)sc1C(=O)N[C@H]1CCCNC1 [AZD7762] (partner 0.2 µM)
# Experiment: relative viability (nuclei count vs DMSO), 5 days (fraction); higher = more cells survive
# Details: first compound 0.2 µM
# In short: (§1)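 One day after seeding in 1536-well plates, lung cancer cell lines were dosed by pin tool. Dosing was either single-drug or a fixed anchor-drug dose plus five library-drug doses (not always all listed) in √10 steps. After 5 days, nuclei were stained in one fix-and-stain step and counted on 4× images, and relative viability is the nuclei count of treated wells over that of vehicle wells, given as the median of duplicate plates.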
row,Cell Line,relative viability
1,NCI-H1355,0.738
2,NCI-H3122,1.1
3,NCI-H1437,1.15
4,NCI-H1755,0.501
5,HCC-15,1.28
6,NCI-H1793,0.43
7,PC-14,0.343
8,EKVX,0.795
9,LC-2-ad,0.827
10,NCI-H1944,0.534
11,NCI-H1975,0.78
12,RERF-LC-KJ,1.03
13,ABC-1,0.753
14,NCI-H358,0.518
15,NCI-H650,0.95
16,PC-3 [JPC-3],0.692

# Same assay, conditions: first compound 0.6325 µM
row,Cell Line,relative viability
1,NCI-H1355,0.693
2,NCI-H3122,0.918
3,NCI-H1437,1.17
4,NCI-H1755,0.386
5,HCC-15,1.2
6,NCI-H1793,0.617
7,PC-14,0.382
8,EKVX,0.713
9,LC-2-ad,0.908
10,NCI-H1944,0.476
11,NCI-H1975,0.813
12,RERF-LC-KJ,0.932
13,ABC-1,0.772
14,NCI-H358,0.681
15,NCI-H650,0.93
16,PC-3 [JPC-3],1.06

# Same assay, conditions: first compound 2 µM
row,Cell Line,relative viability
1,NCI-H1355,0.941
2,NCI-H3122,1.02
3,NCI-H1437,1.17
4,NCI-H1755,0.461
5,HCC-15,1.15
6,NCI-H1793,0.357
7,PC-14,0.357
8,EKVX,0.815
9,LC-2-ad,0.941
10,NCI-H1944,0.487
11,NCI-H1975,0.805
12,RERF-LC-KJ,0.999
13,ABC-1,0.79
14,NCI-H358,0.48
15,NCI-H650,1.02
16,PC-3 [JPC-3],0.874

# Same assay, conditions: first compound 6.325 µM
row,Cell Line,relative viability
1,NCI-H1355,0.661
2,NCI-H3122,0.983
3,NCI-H1437,1.17
4,NCI-H1755,0.477
5,HCC-15,1.34
6,NCI-H1793,0.432
7,PC-14,0.257
8,EKVX,0.657
9,LC-2-ad,0.91
10,NCI-H1944,0.51
11,NCI-H1975,0.775
12,RERF-LC-KJ,0.888
13,ABC-1,0.91
14,NCI-H358,0.498
15,NCI-H650,0.67
16,PC-3 [JPC-3],0.685

# Compound: Cc1cc([C@@H](C)Nc2ccccc2C(=O)O)c2nc(N3CCOCC3)cc(=O)n2c1 [AZD6482] + Cc1nc(NC(=O)N2CCC[C@H]2C(N)=O)sc1-c1ccnc(C(C)(C)C(F)(F)F)c1 [Alpelisib] (partner 2 µM)
# Experiment: as above
# Details: first compound 0.08 µM
# In short: as §1
row,Cell Line,relative viability
1,NCI-H1355,0.523
2,NCI-H3122,0.696
3,NCI-H1437,0.819
4,NCI-H1755,0.695
5,HCC-15,0.856
6,NCI-H1793,0.537
7,PC-14,0.857
8,EKVX,0.516
9,LC-2-ad,0.704
10,NCI-H1944,0.6
11,NCI-H1975,0.475
12,RERF-LC-KJ,0.653
13,ABC-1,0.741
14,NCI-H358,0.657
15,NCI-H650,1.11
16,PC-3 [JPC-3],0.855

# Same assay, conditions: first compound 0.253 µM
row,Cell Line,relative viability
1,NCI-H1355,0.621
2,NCI-H3122,0.717
3,NCI-H1437,0.842
4,NCI-H1755,0.719
5,HCC-15,0.797
6,NCI-H1793,0.519
7,PC-14,0.882
8,EKVX,0.46
9,LC-2-ad,0.597
10,NCI-H1944,0.518
11,NCI-H1975,0.439
12,RERF-LC-KJ,0.614
13,ABC-1,0.819
14,NCI-H358,0.978
15,PC-3 [JPC-3],0.997

# Same assay, conditions: first compound 0.8 µM
row,Cell Line,relative viability
1,NCI-H1355,0.6
2,NCI-H3122,0.754
3,NCI-H1437,0.809
4,NCI-H1755,0.547
5,HCC-15,0.861
6,NCI-H1793,0.48
7,PC-14,0.832
8,EKVX,0.591
9,LC-2-ad,0.668
10,NCI-H1944,0.6
11,NCI-H1975,0.521
12,RERF-LC-KJ,0.6
13,ABC-1,1.05
14,NCI-H358,0.705
15,NCI-H650,0.997
16,PC-3 [JPC-3],0.983

# Same assay, conditions: first compound 2.53 µM
row,Cell Line,relative viability
1,NCI-H1355,0.452
2,NCI-H3122,0.394
3,NCI-H1437,0.641
4,NCI-H1755,0.336
5,HCC-15,0.736
6,PC-14,0.663
7,EKVX,0.336
8,LC-2-ad,0.467
9,NCI-H1944,0.421
10,NCI-H1975,0.373
11,RERF-LC-KJ,0.559
12,ABC-1,0.702
13,NCI-H358,0.39
14,NCI-H650,0.656
15,PC-3 [JPC-3],0.877

# Same assay, conditions: first compound 8 µM
row,Cell Line,relative viability
1,NCI-H1355,0.592
2,NCI-H3122,0.677
3,NCI-H1437,0.741
4,NCI-H1755,0.435
5,HCC-15,0.772
6,NCI-H1793,0.406
7,PC-14,0.807
8,EKVX,0.581
9,LC-2-ad,0.507
10,NCI-H1944,0.51
11,NCI-H1975,0.362
12,RERF-LC-KJ,0.637
13,ABC-1,0.826
14,NCI-H358,0.833
15,NCI-H650,0.778
16,PC-3 [JPC-3],0.97

# Compound: COc1cc2nc(N3CCCN(C)CC3)nc(NC3CCN(Cc4ccccc4)CC3)c2cc1OC + COc1cc2c(Oc3ccc(NC(=O)C4(C(=O)Nc5ccc(F)cc5)CC4)cc3F)ccnc2cc1OCCCN1CCOCC1 [Foretinib] (partner 0.25 µM)
# Experiment: as above
# Details: first compound 0.2 µM
# In short: as §1
row,Cell Line,relative viability
1,NCI-H1355,0.973
2,NCI-H3122,0.915
3,NCI-H1437,1.21
4,NCI-H1755,0.9
5,HCC-15,1.1
6,NCI-H1793,0.591
7,PC-14,1.01
8,EKVX,0.754
9,LC-2-ad,0.813
10,NCI-H1944,0.882
11,NCI-H1975,0.972
12,RERF-LC-KJ,0.905
13,ABC-1,1.04
14,NCI-H358,0.701
15,NCI-H650,1.06
16,PC-3 [JPC-3],1.03

# Same assay, conditions: first compound 0.6325 µM
row,Cell Line,relative viability
1,NCI-H1355,0.968
2,NCI-H3122,1.02
3,NCI-H1437,1.21
4,NCI-H1755,0.899
5,HCC-15,1
6,NCI-H1793,0.882
7,PC-14,0.959
8,EKVX,0.814
9,LC-2-ad,0.938
10,NCI-H1944,0.867
11,NCI-H1975,0.97
12,RERF-LC-KJ,0.927
13,ABC-1,1.35
14,NCI-H358,0.824
15,NCI-H650,0.948
16,PC-3 [JPC-3],1.03

# Same assay, conditions: first compound 2 µM
row,Cell Line,relative viability
1,NCI-H1355,1.05
2,NCI-H3122,0.955
3,NCI-H1437,1.38
4,NCI-H1755,0.922
5,HCC-15,1.06
6,NCI-H1793,0.848
7,PC-14,0.939
8,EKVX,0.986
9,LC-2-ad,0.956
10,NCI-H1944,0.862
11,NCI-H1975,1
12,RERF-LC-KJ,0.904
13,ABC-1,1.32
14,NCI-H358,0.81
15,NCI-H650,1.12
16,PC-3 [JPC-3],1.14

# Same assay, conditions: first compound 6.325 µM
row,Cell Line,relative viability
1,NCI-H1355,0.919
2,NCI-H3122,0.968
3,NCI-H1437,1.23
4,NCI-H1755,0.815
5,HCC-15,0.853
6,NCI-H1793,0.701
7,PC-14,0.885
8,EKVX,0.794
9,LC-2-ad,0.974
10,NCI-H1944,0.807
11,NCI-H1975,0.955
12,RERF-LC-KJ,0.857
13,ABC-1,0.996
14,NCI-H358,0.566
15,NCI-H650,0.965
16,PC-3 [JPC-3],0.992

# Compound: COc1cc2nc(N3CCCN(C)CC3)nc(NC3CCN(Cc4ccccc4)CC3)c2cc1OC + Cc1cc(Nc2cc(N3CCN(C)CC3)nc(Sc3ccc(NC(=O)C4CC4)cc3)n2)n[nH]1 [Tozasertib] (partner 0.1 µM)
# Experiment: as above
# Details: first compound 0.2 µM
# In short: as §1
row,Cell Line,relative viability
1,NCI-H1355,0.565
2,NCI-H3122,0.429
3,NCI-H1437,0.442
4,NCI-H1755,0.668
5,HCC-15,0.477
6,NCI-H1793,0.338
7,PC-14,0.587
8,EKVX,0.41
9,LC-2-ad,0.493
10,NCI-H1944,0.248
11,NCI-H1975,0.797
12,RERF-LC-KJ,0.508
13,ABC-1,0.197
14,NCI-H358,0.108
15,NCI-H650,0.773
16,PC-3 [JPC-3],0.932

# Same assay, conditions: first compound 0.6325 µM
row,Cell Line,relative viability
1,NCI-H1355,0.539
2,NCI-H3122,0.413
3,NCI-H1437,0.433
4,NCI-H1755,0.464
5,HCC-15,0.378
6,NCI-H1793,0.386
7,PC-14,0.61
8,EKVX,0.34
9,LC-2-ad,0.436
10,NCI-H1944,0.277
11,NCI-H1975,0.804
12,RERF-LC-KJ,0.523
13,ABC-1,0.211
14,NCI-H358,0.111
15,NCI-H650,0.714
16,PC-3 [JPC-3],0.915

# Same assay, conditions: first compound 2 µM
row,Cell Line,relative viability
1,NCI-H1355,0.582
2,NCI-H3122,0.543
3,NCI-H1437,0.469
4,NCI-H1755,0.592
5,HCC-15,0.557
6,NCI-H1793,0.359
7,PC-14,0.64
8,EKVX,0.476
9,LC-2-ad,0.551
10,NCI-H1944,0.268
11,NCI-H1975,0.999
12,RERF-LC-KJ,0.47
13,ABC-1,0.201
14,NCI-H358,0.123
15,NCI-H650,0.793
16,PC-3 [JPC-3],0.938

# Same assay, conditions: first compound 6.325 µM
row,Cell Line,relative viability
1,NCI-H1355,0.546
2,NCI-H3122,0.536
3,NCI-H1437,0.461
4,NCI-H1755,0.557
5,HCC-15,0.368
6,NCI-H1793,0.322
7,PC-14,0.505
8,EKVX,0.542
9,LC-2-ad,0.47
10,NCI-H1944,0.28
11,NCI-H1975,0.832
12,RERF-LC-KJ,0.417
13,ABC-1,0.297
14,NCI-H358,0.126
15,NCI-H650,0.709
16,PC-3 [JPC-3],0.88
